≈ marks a conversion by molar mass, not a printed value.
Key:
T. rubrum [1] = assay: aPI in the presence of ROS and RNS scavengers, CFU; format: cell-based; details: scavenger added before aPI with curcumin photosensitizer
Description: (§4) Different ROS and RNS scavengers were used to evaluate the effect of radical stress inhibition on aPI efficacy. […] Scavengers were added to fungal suspensions immediately before initiation of aPI and incubated for 1 h with RPMI 1640 without phenol red plus 2% glucose at 28° C. To evaluate fungal viability, 150 μL of the fungal suspensions were plated onto PDA, and incubated at 28° C. for 72 hours. The HT TitierTACS™ assay kit (Trevigen, Gaithersburg, Md., USA) was used to evaluate the occurrence of apoptosis after aPI.

[2] = system: Pseudomonas aeruginosa, MRSA, Escherichia coli, Klebsiella pneumoniae; details: same concentration as generated from the nanoparticles; cited from earlier work
E. coli = assay: Colony-forming units (CFU) assay, E. coli; format: cell-based; details: 24 h
Description: (§1) Following 24 h incubation of E. coli and MRSA, 10 μL aspirates from wells of the honeycomb plates were transferred to Eppendorf tubes with 990 μL PBS and gently vortexed. Controls were collected in the same fashion from wells containing only bacteria and TSB. The suspensions were serially diluted in PBS so that final concentrations were 10^−6 of the incubated concentration, and 100 μL aliquots were plated on TSA plates for 24 h. As with the absorbance assays, 8 clinical strains each of MRSA and E. coli were evaluated (data represents an average for the 8 strains each of E. coli and MRSA), and all conditions were measured in triplicate. CFU's were counted and recorded. Percent survival was determined by comparing CFU counts of SNO-CAP-np- or captopril-treated bacteria to CFU counts of untreated bacteria. P-value <0.05 by unpaired t-test was considered significant.

E. coli clinical strains = assay: Bacterial growth susceptibility (OD600), E. coli; format: cell-based; details: all concentrations tested, up to 24 h, vs untreated
Description: (§2) In this example, 8 clinical strains each of MRSA and E. coli were evaluated. For each bacterial strain, one colony of bacteria grown on tryptic soy agar (TSA) was suspended in 1 mL tryptic soy broth (TSB). One μL aliquots were transferred to a 100-well honeycomb plate with 199 μL TSB. This TSB contained either 1, 2.5, 5, or 10 mg/mL SNO-CAP-np, or 2.5, 5, or 10 mM captopril, and controls included wells containing bacteria and TSB alone. The background absorbance of each SNO-CAP-np concentration was accounted for by wells containing SNO-CAP-np and TSB alone. No background absorbance was measured for captopril. […] All wells were incubated for 24 hours at 37° C. and growth was assessed by measuring optical density at 600 nm (OD600) with a microplate reader (Bioscreen C, Growth Curves USA, Piscataway, N.J.). Each condition was measured in triplicate, and averages were calculated along with standard error of the mean (SEM).
(§3) E. coli and MRSA strains were incubated at 37° C. with and without various concentrations of SNO-CAP-np (1, 2.5, 5, or 10 mg/mL) or captopril ([…]) for 24 h. […] Each data set represents averages for 8 strains of either E. coli or MRSA, and conditions for each strain were measured in triplicate. […]

MRSA clinical strains = assay: Bacterial growth susceptibility (OD600), MRSA; format: cell-based; details: all concentrations tested, up to 24 h, vs untreated
Description: as §2, §3

MRSA = assay: Colony-forming units (CFU) assay, MRSA; format: cell-based; details: 24 h
Description: as §1

T. rubrum [3] = assay: In vivo antimicrobial photodynamic therapy (aPDT) pilot study; parameters: species or system BALB/c mice; details: 500 μg/mL in coconut oil, 10 J/cm^2 blue light, one treatment, CFU three days post treatment
Description: BALB/c mice were subcutaneously infected with T. rubrum. Seven days post-infection, mice (n=2 per group) were submitted to one treatment of aPDT, using 500 μg/mL of curcumin and curc-np suspended in coconut oil and 10 J/cm^2 of blue light. Pre-irradiation incubation time was 30 minutes, under light protection. Tissue was homogenized and CFUs quantified three days post treatment.

T. rubrum cells = assay: Apoptosis assay after aPI (HT TitierTACS kit); format: cell-based; details: vs untreated control
Description: as §4

T. rubrum microconidia = assay: Antimicrobial photodynamic inhibition (aPI) optimization, CFU; format: cell-based
Description: In this example, a curcumin (Sigma-Aldrich, St. […] For susceptibility testing, the stock was dilution in RPMI 1640 medium to a final concentration of 40 μg/mL. For aPI, the stock was diluted in PBS to concentrations of 1.0, 10 and 100 μg/mL. […] A comparative concentration of curcumin incorporated in nanoparticles was used based on spectrophotometric release curves showing that each mg of curc-np contained 10 μg of curcumin. For susceptibility testing, 8 mg of curc-np was suspended in 1 mL of PBS and diluted in RPMI to a final concentration of […] (equivalent to 40 μg/mL of encapsulated curcumin). For aPI, 10 mg of curc-np was suspended in 1 mL of PBS and serially diluted to obtain 10 μg/mL, 100 μg/mL and 10 mg/L of curc-np (equivalent to 1.0, 10, and 100 μg/mL of encapsulated curcumin). The light source used was BLU-U® light model 4070 (DUSA pharmaceuticals, Wilmington, Mass., USA), which emits blue light at a wavelength of 417±5 nm. The doses used were 10 J/cm^2 (17 minutes), 20 J/cm^2 (34 minutes), and 40 J/cm^2 (68 minutes). BLU-U light was chosen as the light source due to its resonance with curcumin. For aPI optimization, fungal cells were submitted to different treatment conditions by varying the photosensitizer (PS) concentration and light dose, as described in Table 1, below. PS without photoactivation and blue light alone served as dark toxicity and light controls, respectively. […] [table]

T. rubrum [4] = assay: Intracellular ROS and RNS after aPI, flow cytometry; format: cell-based; details: vs untreated
Description: Following aPI, samples were incubated with fluorescent probes for 30 minutes at 28° C., and subsequently analyzed with flow cytometry (Becton Dickinson™ LSRII, USA) using a 530/30 nm band pass filter for fluorescence detection. The Mean Fluorescence Intensity (MFI) was considered to determine radical production. Data analyses were performed using FlowJo 10.1 software.

T. rubrum [5] = assay: Susceptibility testing (microdilution, CLSI M38-A) and growth curves; format: cell-based
Description: Susceptibility of T. rubrum to ground-state curcumin was tested by a microdilution method according to CLSI M38-A.49, 52 Itraconazole concentration ranged from 0.015 μg/mL to 8 μg/mL and curcumin and curc-np concentrations from 0.0012 μg/mL to 20 μg/mL. A 1% DMSO solution in control medium was evaluated. The MIC value was defined as the concentration required for 80% […] compared to untreated control. 12, 49 Growth kinetics of ground-state curcumin compared to aPI was also evaluated. Growth was evaluated for 7 days at 28° C. using a Bioscreen C growth curve system (Growth Curves USA, Piscataway, N.J., USA).

[6] = system: J774.16 macrophages challenged with T. rubrum; assay: Phagocytosis assay: J774.16 macrophages challenged with T. rubrum and treated with aPI; format: cell-based
Description: Macrophages were challenged with T. rubrum and treated with aPI to investigate the efficacy against infected mammalian cells. Specifically, J774.16 macrophages were grown at 37° C. with 10% CO2 in DMEM (Cellgro, Manassas, Va., USA). The fungal-macrophage cell proportion was 1:1, with 5.0×10^5 fungal cells to 5.0×10^5 macrophage cells. After challenging macrophages with T. rubrum microconidia, the cells were submitted to aPI, followed by incubation in the 10% CO2 chamber at 37° C. for 24 hours. The macrophages were lysed with cold distilled water and the lysate plated onto PDA and incubated at 28° C. for 72 hours.

With OC[C@@H](O)[C@@H](O)[C@H](O)[C@H](O)CO [D-mannitol] as the compound, how does the “inhibition of aPI efficacy by scavenger (fungal growth, CFU)” value (“inhibition of aPI efficacy by scavenger” below) (T. rubrum [1]) read?
The value was “none of the concentrations”.

Which “inhibition of aPI efficacy by scavenger” value (T. rubrum [1]) does the source give for Cl.O=S(=O)([O-])c1ccc(-c2c3nc(c(-c4ccc(S(=O)(=O)O)cc4)c4ccc([nH]4)c(-c4ccc(S(=O)(=O)O)cc4)c4nc(c(-c5ccc(S(=O)(=O)O)cc5)c5ccc2[nH]5)C=C4)C=C3)cc1.[Fe] [FeTPPs, 5,10,15,20-tetrakis-(4-sulfonatophenyl)-porphyrinato iron (III) chloride] here?
The value was “T. rubrum growth was relatively intact despite aPI”.

Which “antibacterial activity of an aliquot” value [2] does the source give for N[C@@H](CCC(=O)N[C@@H](CSN=O)C(=O)NCC(=O)O)C(=O)O [GSNO, S-nitrosoglutathione] here?
The value was “no antibacterial activity was observed”.

For O.O=S(=O)([O-])c1cc(O)c(O)c(S(=O)(=O)[O-])c1.[Na+].[Na+] [Tiron, 4,5-dihydroxy-1,3-benzenedisulfonic acid disodiumsalt hydrate], which “inhibition of aPI efficacy by scavenger” value (T. rubrum [1]) is on record?
Its value is “none of the concentrations”.

For C[C@H](CS)C(=O)N1CCC[C@H]1C(=O)O [captopril], which “average E. coli survival compared with untreated controls” value (E. coli; 2.5 mM) is on record?
Its value is 85%.

What about the “average E. coli survival compared with untreated controls” value (E. coli; 5 mM) of the same compound?
Its value is 83.6%.

What about the “average E. coli survival compared with untreated controls” value (E. coli; 10 mM) of the same compound?
The value was 59.1%.

And the “effect on E. coli growth (OD600)” value (E. coli clinical strains)?
The value was “showed an effect on E. coli growth in a dose dependent fashion”.

What about the “effect on MRSA growth (OD600)” value (MRSA clinical strains) of the same compound?
Its value is “did not have an effect”.

And the “average MRSA survival compared with untreated controls” value (MRSA; 2.5 mM)?
The value was 99.3%.

What about the “average MRSA survival compared with untreated controls” value (MRSA; 5 mM) of the same compound?
The value was 95.6%.

And the “average MRSA survival compared with untreated controls” value (MRSA; 10 mM)?
The value was 69.5%.

For CC1(C)N([O])C(c2ccc(C(=O)O)cc2)=[N+]([O-])C1(C)C [carboxy-PTIO], which “inhibition of aPI efficacy by scavenger” value (T. rubrum [1]) is on record?
Its value is “T. rubrum growth was relatively intact despite aPI”.

What does the source list for COc1cc(/C=C/C(=O)CC(=O)/C=C/c2ccc(O)c(OC)c2)ccc1O [curcumin]?
fungal burden compared to untreated control (T. rubrum [3]): did not significantly reduce fungal burden; apoptosis of T. rubrum cells after irradiation with blue light (T. rubrum cells): significant trend towards increased apoptosis; apoptosis of T. rubrum cells without irradiation (T. rubrum cells): did not induce apoptosis; fungal viability (CFU) after aPI, lowest PS concentration (T. rubrum microconidia; 0.1 μg/mL, blue light 40 J/cm^2): did not differ significantly from untreated control; T. rubrum growth (CFU) after aPI at varying light dose (T. rubrum microconidia; 10 μg/mL, blue light 10, 20 and 40 J/cm^2): completely inhibited T. rubrum growth; fungal growth (CFU) after aPI, highest concentration (T. rubrum microconidia; 10 μg/mL, blue light 40 J/cm^2): complete growth inhibition; fungal viability (CFU) after aPI (T. rubrum microconidia; 1.0 and 10 μg/mL, blue light 40 J/cm^2, vs untreated): significantly decreased fungal viability; fungal burden, PS without photoactivation (dark toxicity) (T. rubrum microconidia; three concentrations tested, no light): did not reduce fungal burden; fold change in NO. production (T. rubrum [4]; DAF-FM probe): 6 fold; fold-change in ONOO. production (T. rubrum [4]; DHR 123 probe): 7 fold; fold-change in ROS production (T. rubrum [4]; H2DCFDA probe): 17 fold; fungal growth reduction, ground-state (no photoactivation) (T. rubrum [5]; seven-day incubation, 0.0012-20 μg/mL): did not yield significant 80% reduction of fungal growth; macrophage-induced destruction of T. rubrum cells, no aPI ([6]; ground state): caused a decrease in macrophage-induced destruction of T. rubrum cells; fungal burden (CFU) in macrophages after aPI ([6]; vs untreated, dark toxicity and blue light controls): significantly reduced fungal burden

For CCC(C)n1ncn(-c2ccc(N3CCN(c4ccc(OCC5COC(Cn6cncn6)(c6ccc(Cl)cc6Cl)O5)cc4)CC3)cc2)c1=O (centres unmarked) [itraconazole], which MIC (T. rubrum [5]; Trichophyton rubrum, clinical T. rubrum strain) is on record?
The MIC was 0.25 µg/mL (≈ 0.354 µM).

For CC(=O)C(=O)[O-].[Na+] [sodium pyruvate], which “inhibition of aPI efficacy by scavenger” value (T. rubrum [1]) is on record?
The value was “none of the concentrations”.

From US20180055877A1, “THERAPEUTIC NANOPARTICLES AND METHODS THEREOF” (priority 2014, published 2018)
